Experimental data as given in patent publication US20180289721A1, “FULVESTRANT COMPOSITIONS” (THEMIS MEDICARE LIMITED, priority 2015, published 2018).
Converted amounts (≈) assume the structure as drawn. Where two headings read alike, the source gives them in different places.

Experiments:
[1] = Solubility studies of fulvestrant in solvents, co-solvents, oils and release rate modifiers; type: physicochemical; settings: for solubility: read-out: Fulvestrant solubility achieved
Description: Solubility studies of fulvestrant were performed using various combinations of solvent, co-solvents, oils and release rate modifiers. The resultant data are shown herein below Table 1.

[2] = diethylene glycol monoethyl ether as the sole solvent, reported by Patel; cited from earlier work

C[C@]12CC[C@@H]3c4ccc(O)cc4C[C@@H](CCCCCCCCC[S+]([O-])CCCC(F)(F)C(F)(F)F)[C@H]3[C@@H]1CC[C@@H]2O (stereo partly drawn) [Fulvestrant, 7-alpha-[9-[(4,4,5,5,5-pentafluoropentyl)sulfinyl]nonyl]estra-1,3,5(10)-triene-3,17-beta-diol]
Fulvestrant solubility achieved ([1]; Benzyl alcohol (4 v/v %):Diethylene glycol monoethyl ether (q.s. to 1.7 mL)): 300 mg/1.7 mL | Fulvestrant solubility achieved ([1]; Benzyl alcohol (5 v/v %):Diethylene glycol monoethyl ether (q.s. to 3.3 mL)): 500 mg/3.3 mL | solubility ([1]; N-methyl pyrrolidone, organic solvent or mixture, N-methyl Pyrolidone): 250 mg/mL | solubility ([1]; Polyethylene Glycol 400, organic solvent or mixture, Polyethylene Glycol 400): 11.1 mg/mL | solubility ([1]; TCLS-101 (DMI), organic solvent or mixture, TCLS-101 (DMI)): 30.8 mg/mL | solubility ([1]; oil or lipid, Benzyl alcohol (4 v/v %):Benzyl benzoate (10 w/v %):Castor oil (50 v/v %):Diethylene glycol monoethyl ether (q.s. to 1 mL)): 56 mg/mL | solubility ([1]; oil or lipid, Benzyl alcohol (4 v/v %):Diethylene glycol monoethyl ether (31 v/v %):Castor oil (q.s. to 1 mL)): 30 mg/mL | solubility ([1]; oil or lipid, Benzyl alcohol (4 v/v %):Diethylene glycol monoethyl ether (46 v/v %):Castor oil (q.s. to 1 mL)): 125 mg/mL | solubility ([1]; oil or lipid, Benzyl alcohol (10 v/v %):Castor oil (50 v/v %):Diethylene glycol monoethyl ether (q.s. to 1 mL)): 151 mg/mL | solubility ([1]; organic solvent or mixture, Benzyl alcohol (2 v/v %):Diethylene glycol monoethyl ether (q.s. to 1 mL)): 200 mg/mL | solubility ([1]; organic solvent or mixture, Benzyl alcohol (2 v/v %):MCT oil (1 v/v %):Diethylene glycol monoethyl ether (q.s. to 1 mL)): 200 mg/mL | solubility ([1]; organic solvent or mixture, Benzyl alcohol (4 v/v %):Diethylene glycol monoethyl ether (q.s. to 1.7 mL)): 176 mg/mL | solubility ([1]; organic solvent or mixture, Benzyl alcohol (5 v/v %):Diethylene glycol monoethyl ether (q.s. to 3.3 mL)): 151 mg/mL | solubility [2]: 58.80 mg/mL (≈ 96.9 mM)
